Laboratory results taken from publication PMC10762035, “Molecular basis of human trace amine-associated receptor 1 activation” (Nature Communications, 2024).
Substitutions are numbered along the chain they refer to. “And” between values parts separate entries of the source, which are not always exact repeats. Equal values may be shown once.

What was measured:
Format in all cases: cell-based
[1] = target: T1, hTA1 C96S (Homo sapiens, UniProt Q96RJ0, C96S); test: GloSensor cAMP accumulation assay, C96S mutant; details: log[Compound]
T1 construct: expressed in transfected cells; host or cells: HEK293T
T1 sequence (Q96RJ0 1-339 C96S): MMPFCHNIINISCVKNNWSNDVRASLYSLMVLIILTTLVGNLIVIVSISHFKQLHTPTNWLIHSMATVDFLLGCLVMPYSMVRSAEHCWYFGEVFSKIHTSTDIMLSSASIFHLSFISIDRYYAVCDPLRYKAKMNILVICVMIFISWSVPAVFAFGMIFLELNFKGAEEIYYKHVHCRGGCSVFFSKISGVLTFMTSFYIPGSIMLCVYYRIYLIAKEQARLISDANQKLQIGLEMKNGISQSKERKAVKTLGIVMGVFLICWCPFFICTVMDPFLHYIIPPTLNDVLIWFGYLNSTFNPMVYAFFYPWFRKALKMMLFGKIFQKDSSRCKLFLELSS

[2] = target: T2, hTA1 C88/178S (Homo sapiens, UniProt Q96RJ0, C178S/C88S); test: GloSensor cAMP accumulation assay, C88S/C178S double mutant; details: for Normalized Luminescence Counts (N=2): log[Compound], single replicate values
T2 construct: expressed in transfected cells; host or cells: HEK293T
T2 sequence (Q96RJ0 1-339 C88S/C178S): T1 sequence (Q96RJ0 1-339 C96S) with C88S, S96C, C178S

[3] = target: T3, hTA1 I290N (Homo sapiens, UniProt Q96RJ0, I290N); test: GloSensor cAMP accumulation assay, I290N mutant;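 further: cells transiently co-expressing hTA1 and the GloSensor cAMP biosensor, luminescence read 30 min after compound addition at room temperature, efficacy scaled to the maximal β-PEA response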
T3 construct: expressed in transfected cells; host or cells: HEK293T
T3 sequence (Q96RJ0 1-339 I290N): T1 sequence (Q96RJ0 1-339 C96S) with S96C, I290N

[4] = target: T4, hTA1 F195T (Homo sapiens, UniProt Q96RJ0, F195T); test: GloSensor cAMP accumulation assay, F195T mutant;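 further: cells transiently co-expressing HA-FLAG-tagged hTA1 and the GloSensor cAMP biosensor, luminescence read 30 min after agonist addition at room temperature, concentration-response fitted by nonlinear regression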
T4 construct: expressed in transfected cells; host or cells: HEK293T
T4 sequence (Q96RJ0 1-339 F195T): T1 sequence (Q96RJ0 1-339 C96S) with S96C, F195T

[5] = target: T5, hTA1 T271A (Homo sapiens, UniProt Q96RJ0, T271A); test: GloSensor cAMP accumulation assay, T271A mutant
T5 construct: expressed in transfected cells; host or cells: HEK293T
T5 sequence (Q96RJ0 1-339 T271A): T1 sequence (Q96RJ0 1-339 C96S) with S96C, T271A

[6] = C88S, C178S, each row is one independent experiment, 3 replicates
[7] = hTA1 I290N mutant minus WT average

## NCCc1ccccc1 [β-PEA, β-phenethylamine]
[1]; C96S, M = -5, single replicates (N=2)
  Normalized Luminescence Counts: 35.6736 and 42.2638 and 54.1262 and 8.922 and 12.7948 and 20.5413
[1]; C96S, M = -5.522, single replicates (N=2)
  Normalized Luminescence Counts: 25.7883 and 20.5161 and 22.4932 and 16.6681 and -2.698 and 8.922
[1]; C96S, M = -6, single replicates (N=2)
  Normalized Luminescence Counts: 12.6079 and 10.6308 and 7.995 and -2.698 (2×) and 5.048
[1]; C96S, M = -6.522, single replicates (N=2)
  Normalized Luminescence Counts: 0.7455 (2×) and 3.382 and 1.175 and -6.571 (2×)
[1]; C96S, M = -7, single replicates (N=2)
  Normalized Luminescence Counts: 0.7455 and -1.232 and -0.5726 and -2.698 (2×) and -6.571
[1]; C96S, M = -7.522, single replicates (N=2)
  Normalized Luminescence Counts: -0.5726 and -1.891 and 0.08646 and -4.6346 (2×) and -6.571
[1]; C96S, M = -8, single replicates (N=2)
  Normalized Luminescence Counts: 2.064 and 0.7455 and -0.5726 and 1.175 and 6.985 and 5.048
[1]; C96S, M = -8.522, single replicates (N=2)
  Normalized Luminescence Counts: 2.723 and -1.232 and -1.891 and 6.985 and 1.175 and 8.922
[1]; C96S, M = -9, single replicates (N=2)
  Normalized Luminescence Counts: -0.5726 and 0.08646 and -1.232 and 10.8582 and 1.175 and -0.7614
[1]; C96S, M = -9.522, single replicates (N=2)
  Normalized Luminescence Counts: 2.064 and -3.209 and -1.232 and -2.698 (2×) and 3.112
[1]; C96S, M = -10, single replicates (N=2)
  Normalized Luminescence Counts: 0.08646 and -0.5726 and -1.232 and -8.508 and -2.698 and -0.7614
[1]; C96S, M = -10.522, single replicates (N=2)
  Normalized Luminescence Counts: 4.7 and -1.232 and -1.891 and -10.4444 and -0.7614 and -2.698
[1]; C96S, M = -11, single replicates (N=2)
  Normalized Luminescence Counts: 2.723 and -0.5726 and 0.7455 and -10.4444 and 3.112 and 1.175
[1]; C96S, M = -11.522, single replicates (N=2)
  Normalized Luminescence Counts: 0.08646 and 2.064 and -2.55 and -10.4444
[1]; M = -11.522, single replicates, mutant block above C178S
  Normalized Luminescence Counts: -0.6791 and -0.9294 and -0.1556 and 1.551 and 0.7492 and 1.23
[1]; M = -12, single replicates, mutant block above C178S
  Normalized Luminescence Counts: -0.6108 and -0.9294 and -0.5425 and 1.07 and 0.8561 and 1.283
[1]; M = -12.522, single replicates, mutant block above C178S
  Normalized Luminescence Counts: -0.7929 and -0.6336 and -1.02 and 1.337 and 1.283 and 0.8561
[2]; C88/178S, n=2
  Span ± SEM (Emax normalized to β-PEA): 100 ± 2.48
  pEC50 ± SEM: 6.88 ± 0.05
[2]; C88/178S, n=2, read-out: EC50
  EC50: 131 nM
[2]; [6]
  pEC50 values, Mean: 6.846 and 6.92
  ΔEmax values (each mutant value - WT average), Mean: 0
  ΔpEC50 values (each mutant value - WT average), Mean: -0.2478 and -0.1738
[2]; C88S, C178S, M = -5
  Normalized Luminescence Counts (N=2): 101.882 and 95.4366 and 102.899 and 85.0446 and 70.847 and 114.648
[2]; C88S, C178S, M = -5.522
  Normalized Luminescence Counts (N=2): 95.8888 and 94.7581 and 92.1574 and 110.721 and 84.1384 and 118.726
[2]; C88S, C178S, M = -6
  Normalized Luminescence Counts (N=2): 93.4012 and 85.4861 and 88.3694 and 88.8206 and 85.1957 and 105.284
[2]; C88S, C178S, M = -6.522
  Normalized Luminescence Counts (N=2): 70.73 and 60.7795 and 60.3272 and 66.7689 and 68.1283 and 68.2793
[2]; C88S, C178S, M = -7
  Normalized Luminescence Counts (N=2): 45.3449 and 38.504 and 42.0658 and 45.3213 and 30.2174 and 49.8525
[2]; C88S, C178S, M = -7.522
  Normalized Luminescence Counts (N=2): 20.2426 and 24.5959 and 17.7549 and 22.8165 and 30.2174 and 24.931
[2]; C88S, C178S, M = -8
  Normalized Luminescence Counts (N=2): 8.37 and 6.617 and 6.9 and 9.072 and 8.317 and 8.6188
[2]; C88S, C178S, M = -8.522
  Normalized Luminescence Counts (N=2): 1.02 and 2.433 and 0.1154 and 4.692 and 3.483 and 4.843
[2]; C88S, C178S, M = -9
  Normalized Luminescence Counts (N=2): 0.5677 and 0.7373 and -0.4499 and -0.2925 (2×) and 1.218
[2]; C88S, C178S, M = -9.522
  Normalized Luminescence Counts (N=2): 0.002362 and 0.3416 and -0.5065 and -0.8967 and 0.3116 and 0.009559
[2]; C88S, C178S, M = -10
  Normalized Luminescence Counts (N=2): -0.9588 and 0.002362 and -0.3934 and -1.652 and -0.4436 and -1.199
[2]; C88S, C178S, M = -10.522
  Normalized Luminescence Counts (N=2): -1.185 and -0.563 and -1.0153 and -1.803 and 0.009559 and -1.35
[2]; C88S, C178S, M = -11
  Normalized Luminescence Counts (N=2): -0.05417 and -0.2238 and 0.4547 and -0.2925 and -1.652 and -0.7456
[2]; C88S, C178S, M = -11.522
  Normalized Luminescence Counts (N=2): 0.172 and 0.1154 and 0.7939 and 0.1606 and -1.954 and -0.4436
[2]; C88S, C178S, M = -12
  Normalized Luminescence Counts (N=2): 0.172 and -0.6195 and -0.5065 and -0.1415 and -1.35 and 0.9158
[2]; C88S, C178S, M = -12.522
  Normalized Luminescence Counts (N=2): -0.2803 and 0.2285 and 0.002362 and -1.199 and 0.4627 and 0.6137
[2]; C88S, C178S, normalized (β-PEA = 100), each row is one independent experiment, 3 replicates
  Emax values, Mean: 100
[3]; I290N, n=2
  Span ± SEM (Emax normalized to β-PEA): 100 ± 2.5
  pEC50 ± SEM: 7.26 ± 0.06
[3]; I290N, n=2, read-out: EC50
  EC50: 54.7 nM
[3]; hTA1 I290N (N=2), log[Compound], M = -5
  cAMP accumulation response, single replicate values (source data, Supplementary Figure 5): 123.698 and 115.527 and 100.651 and 114.899
[3]; [7]
  ΔEmax values (each mutant value - WT average), Mean: 0
  ΔpEC50 values (each mutant value - WT average), Mean: 0.1524 and 0.1839
[3]; hTA1 I290N mutant, Figure 3B source data, each grid row a separate experiment, 3 replicates
  pEC50 values, Mean: 7.2459 and 7.277
[3]; hTA1 I290N mutant, β-PEA set to 100, each grid row a separate experiment, 3 replicates
  Emax values, Mean: 100
[4]; F195T
  increase in potency vs wild type: ~ 3.5 fold
[4]; F195T mutant minus WT average, Figure 5B
  ΔpEC50 values (each mutant value - WT average), Mean: 0.6087 and 0.4606
[4]; F195T mutant, Figure 5B, each row one independent experiment (3 replicates)
  pEC50 values, Mean: 7.7022 and 7.554
[4]; F195T mutant, Figure 5B, β-PEA = 100, each row one independent experiment (3 replicates)
  Emax values, Mean: 100
[4]; F195T, n=2
  Span ± SEM (Emax normalized to β-PEA): 100
  pEC50 ± SEM: 7.63 ± 0.07
[4]; F195T, n=2, read-out: EC50
  EC50: 23.5 nM
[5]; T271A
  reduction in potency vs wild type: about 10 fold
[5]; T271A mutant minus WT average, Figure 5B
  ΔpEC50 values (each mutant value - WT average), Mean: -1.015 and -0.8638
[5]; T271A mutant, Figure 5B, each row one independent experiment (3 replicates)
  pEC50 values, Mean: 6.079 and 6.23
[5]; T271A mutant, Figure 5B, β-PEA = 100, each row one independent experiment (3 replicates)
  Emax values, Mean: 100
[5]; T271A, n=2
  Span ± SEM (Emax normalized to β-PEA): 100 ± 2.03
  pEC50 ± SEM: 6.15 ± 0.03
[5]; T271A, n=2, read-out: EC50
  EC50: 701 nM
